The results in this text go back to US7361660B2, “Chemical compounds” (AstraZeneca AB, priority 2001, dated 2008).

This test concerns peripheral blood mononuclear cell (PBMC). Nature of the test: Inhibition of PMA/ionomycin-stimulated peripheral blood mononuclear cell proliferation. Type of test: cell-based. The note with it: human PBMC from a single donor, PMA 0.5 ng/ml and ionomycin 500 ng/ml, 72 hours, 3H-Thymidine incorporation; read-out: IA50 (the source's name). On the procedure: The ability of compounds which can inhibit PMA/ionomycin-stimulated peripheral blood mononuclear cell proliferation can be assessed, for example using the procedure set out below:
Inhibition of PMA/Ionomycin-Stimulated Peripheral Blood Mononuclear Cell Proliferation
The assay for Phorbol 12-myristate 13-Acetate (PMA)/ionomycin-stimulated peripheral blood mononuclear cell (PBMC) proliferation was performed in 96-well flat bottomed microtitre plates. Compounds were prepared as 10 mM stock solutions in dimethyl sulfoxide. A 50-fold dilution of this was prepared in RPMI culture medium and serial diutions were prepared from this solution. 10 μl of the 50-fold diluted stock, or dilutions of it, were added to the well to give concentrations in the assay starting at […] and going down. Into each well was placed 1×10^5 PBMC, prepared from human peripheral blood from a single donor, in RPMI1640 medium supplemented with 10% human serum, 2 mM glutamine and penicillin/streptomycin. PMA (0.5 ng/ml final concentration) and ionomycin (500 ng/ml final concentration) were added to these cells in supplemented RPMI1640 medium (as above) so that the final volume of the assay was 0.2 ml. […] The level of radioactivity incorporated by the cells was then determined and this is a measure of proliferation.
(Uptake of a labelled nucleoside into DNA is a usual measure of proliferation.)

Take `CON(C)C(=O)c1c(Cc2ccnc3ccccc23)sc2c1c(=O)n(C)c(=O)n2CC(C)C` [Example 2, 1,2,3,4-Tetrahydro-N-methoxy-N,3-dimethyl-1-(2-methylpropyl)-2,4-dioxo-6-(4-quinolinylmethyl)thieno[2,3-d]pyrimidine-5-carboxamide]: the IC50 was determined as 5.88 nM. As to `CCCn1c(=O)n(C)c(=O)c2c(C(=O)N(C)OC)c(Cn3c(C)nc(Cl)c3Cl)sc21` [Example 7, 6-[4,5-Dichloro-2-methyl-1H-imidazol-1-ylmethyl]-1,2,3,4-tetrahydro-N-methoxy-N,3-dimethyl-2,4-dioxo-1-propyl-thieno[2,3-d]pyrimidine-5-carboxamide], the IC50 turned out to be 34.6 nM.
